Source: patent publication US12077503B2, “Substituted cyclic amides and their use as herbicides” (FMC CORPORATION, priority 2015, dated 2024)

Experiments:
Type in all cases: in vivo
[1] = system: giant foxtail (Setaria faberi); assay: Test G Post-Emergence Protocol; details: Setaria faberi, post-emergence, 312 h, read-out: Foxtail, Giant damage rating; for pest or weed control at 15.625 g/ha: 15.625 g ai/ha, evaluated after 13 days (100=total damage to plant; 0=no damage to plant); for pest or weed control at 62.5 g/ha: 62.5 g ai/ha; for pest or weed control at 62.5 g/ha / pest or weed control at 250 g/ha: evaluated after 13 days, 100=total damage to plant, 0=no damage to plant; for pest or weed control at 250 g/ha: 250 g ai/ha
In short: (§1)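 Values are percent visual injury at 13 days after treatment (0 none, 100 total). Treatment was a post-emergence spray at 15.625, 62.5 or 250 g/ha on 8-day-old pot plants kept at 24/16 °C.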

[2] = system: ivy-leaved morning glory (Ipomoea hederacea); assay: Test G Post-Emergence Protocol; details: Ipomoea, post-emergence, 312 h, read-out: Morningglory, Ivy-leaved damage rating; for pest or weed control at 15.625 g/ha: 15.625 g ai/ha, evaluated after 13 days (100=total damage to plant; 0=no damage to plant); for pest or weed control at 62.5 g/ha: 62.5 g ai/ha; for pest or weed control at 62.5 g/ha / pest or weed control at 250 g/ha: evaluated after 13 days, 100=total damage to plant, 0=no damage to plant; for pest or weed control at 250 g/ha: 250 g ai/ha
In short: as §1

[3] = system: redroot pigweed (Amaranthus retroflexus); assay: Test G Post-Emergence Protocol; details: Amaranthus retroflexus, post-emergence, 312 h, read-out: Pigweed, Redroot damage rating; for pest or weed control at 15.625 g/ha: 15.625 g ai/ha, evaluated after 13 days (100=total damage to plant; 0=no damage to plant); for pest or weed control at 62.5 g/ha: 62.5 g ai/ha; for pest or weed control at 62.5 g/ha / pest or weed control at 250 g/ha: evaluated after 13 days, 100=total damage to plant, 0=no damage to plant; for pest or weed control at 250 g/ha: 250 g ai/ha
In short: as §1

[4] = system: corn (Zea mays); assay: Test G Post-Emergence Protocol; details: Zea mays, post-emergence, 312 h, read-out: Corn damage rating; for plant injury at 15.625 g/ha: 15.625 g ai/ha, evaluated after 13 days (100=total damage to plant; 0=no damage to plant); for plant injury at 62.5 g/ha: 62.5 g ai/ha; for plant injury at 62.5 g/ha / plant injury at 250 g/ha: evaluated after 13 days, 100=total damage to plant, 0=no damage to plant; for plant injury at 250 g/ha: 250 g ai/ha
In short: as §1

[5] = system: barnyardgrass (Echinochloa crus-galli); assay: Test G Post-Emergence Protocol; details: Echinochloa crus-galli, post-emergence, 312 h, read-out: Barnyardgrass damage rating; for pest or weed control at 15.625 g/ha: 15.625 g ai/ha, evaluated after 13 days (100=total damage to plant; 0=no damage to plant); for pest or weed control at 62.5 g/ha: 62.5 g ai/ha; for pest or weed control at 62.5 g/ha / pest or weed control at 250 g/ha: evaluated after 13 days, 100=total damage to plant, 0=no damage to plant; for pest or weed control at 250 g/ha: 250 g ai/ha
In short: as §1

[6] = system: velvetleaf (Abutilon theophrasti); assay: Test G Post-Emergence Protocol; details: Abutilon theophrasti, post-emergence, 312 h, read-out: Velvetleaf damage rating; for pest or weed control at 15.625 g/ha: 15.625 g ai/ha, evaluated after 13 days (100=total damage to plant; 0=no damage to plant); for pest or weed control at 62.5 g/ha: 62.5 g ai/ha; for pest or weed control at 62.5 g/ha / pest or weed control at 250 g/ha: evaluated after 13 days, 100=total damage to plant, 0=no damage to plant; for pest or weed control at 250 g/ha: 250 g ai/ha
In short: as §1

[7] = system: giant foxtail (Setaria faberi); assay: Test G Pre-Emergence Protocol; details: Setaria faberi, pre-emergence, 312 h, evaluated after 13 days; for pest or weed control at 15.625 g/ha: 15.625 g ai/ha; for pest or weed control at 15.625 g/ha / pest or weed control at 250 g/ha: read-out: Foxtail, Giant damage rating (100=total damage to plant; 0=no damage to plant); for pest or weed control at 62.5 g/ha: 62.5 g ai/ha, 100=total damage to plant, 0=no damage to plant, read-out: Foxtail, Giant damage rating; for pest or weed control at 250 g/ha: 250 g ai/ha
In short: (§2)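 Spraying took place one day after sowing, at 15.625, 62.5 or 250 g/ha, using an acetone/water (50:50) spray solution containing 0.5% Tween 20. Plants were kept under glasshouse conditions (24/16 °C, 14 h light, 65% humidity, watered twice daily), and injury was rated 0–100 at day 13.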

[8] = system: ivy-leaved morning glory (Ipomoea hederacea); assay: Test G Pre-Emergence Protocol; details: Ipomoea, pre-emergence, 312 h, evaluated after 13 days; for pest or weed control at 15.625 g/ha: 15.625 g ai/ha; for pest or weed control at 15.625 g/ha / pest or weed control at 250 g/ha: read-out: Morningglory, Ivy-leaved damage rating (100=total damage to plant; 0=no damage to plant); for pest or weed control at 62.5 g/ha: 62.5 g ai/ha, 100=total damage to plant, 0=no damage to plant, read-out: Morningglory, Ivy-leaved damage rating; for pest or weed control at 250 g/ha: 250 g ai/ha
In short: as §2

[9] = system: redroot pigweed (Amaranthus retroflexus); assay: Test G Pre-Emergence Protocol; details: Amaranthus retroflexus, pre-emergence, 312 h, evaluated after 13 days; for pest or weed control at 15.625 g/ha: 15.625 g ai/ha; for pest or weed control at 15.625 g/ha / pest or weed control at 250 g/ha: read-out: Pigweed, Redroot damage rating (100=total damage to plant; 0=no damage to plant); for pest or weed control at 62.5 g/ha: 62.5 g ai/ha, 100=total damage to plant, 0=no damage to plant, read-out: Pigweed, Redroot damage rating; for pest or weed control at 250 g/ha: 250 g ai/ha
In short: as §2

[10] = system: corn (Zea mays); assay: Test G Pre-Emergence Protocol; details: Zea mays, pre-emergence, 312 h, evaluated after 13 days; for plant injury at 15.625 g/ha: 15.625 g ai/ha; for plant injury at 15.625 g/ha / plant injury at 250 g/ha: read-out: Corn damage rating (100=total damage to plant; 0=no damage to plant); for plant injury at 62.5 g/ha: 62.5 g ai/ha, 100=total damage to plant, 0=no damage to plant, read-out: Corn damage rating; for plant injury at 250 g/ha: 250 g ai/ha
In short: as §2

[11] = system: barnyardgrass (Echinochloa crus-galli); assay: Test G Pre-Emergence Protocol; details: Echinochloa crus-galli, pre-emergence, 312 h, evaluated after 13 days; for pest or weed control at 15.625 g/ha: 15.625 g ai/ha; for pest or weed control at 15.625 g/ha / pest or weed control at 250 g/ha: read-out: Barnyardgrass damage rating (100=total damage to plant; 0=no damage to plant); for pest or weed control at 62.5 g/ha: 62.5 g ai/ha, 100=total damage to plant, 0=no damage to plant, read-out: Barnyardgrass damage rating; for pest or weed control at 250 g/ha: 250 g ai/ha
In short: as §2

[12] = system: velvetleaf (Abutilon theophrasti); assay: Test G Pre-Emergence Protocol; details: Abutilon theophrasti, pre-emergence, 312 h, evaluated after 13 days; for pest or weed control at 15.625 g/ha: 15.625 g ai/ha; for pest or weed control at 15.625 g/ha / pest or weed control at 250 g/ha: read-out: Velvetleaf damage rating (100=total damage to plant; 0=no damage to plant); for pest or weed control at 62.5 g/ha: 62.5 g ai/ha, 100=total damage to plant, 0=no damage to plant, read-out: Velvetleaf damage rating; for pest or weed control at 250 g/ha: 250 g ai/ha
In short: as §2

SMILES	pest or weed control at 15.625 g/ha [1]	pest or weed control at 62.5 g/ha [1]	pest or weed control at 250 g/ha [1]	pest or weed control at 15.625 g/ha [2]	pest or weed control at 62.5 g/ha [2]	pest or weed control at 250 g/ha [2]	pest or weed control at 15.625 g/ha [3]	pest or weed control at 62.5 g/ha [3]	pest or weed control at 250 g/ha [3]	plant injury at 15.625 g/ha [4]	plant injury at 62.5 g/ha [4]	plant injury at 250 g/ha [4]	pest or weed control at 15.625 g/ha [5]	pest or weed control at 62.5 g/ha [5]	pest or weed control at 250 g/ha [5]	pest or weed control at 15.625 g/ha [6]	pest or weed control at 62.5 g/ha [6]	pest or weed control at 250 g/ha [6]	pest or weed control at 15.625 g/ha [7]	pest or weed control at 62.5 g/ha [7]	further results
CCOc1cc(C2CN(C)C(=O)C2C(=O)Nc2cccc(F)c2F)cc(C(F)(F)F)c1 (stereo not drawn) [Compound 1696]	70%	80%	80%	20%	60%	60%	70%	50%	60%	50%	70%	70%	40%	70%	80%	0%	0%	10%	60%	80%	pest or weed control at 250 g/ha [7]: 90%; pest or weed control at 15.625 g/ha [8]: 10%; pest or weed control at 62.5 g/ha [8]: 10%; pest or weed control at 250 g/ha [8]: 20%; pest or weed control at 15.625 g/ha [9]: 20%; pest or weed control at 62.5 g/ha [9]: 0%; pest or weed control at 250 g/ha [9]: 20%; plant injury at 15.625 g/ha [10]: 0%; plant injury at 62.5 g/ha [10]: 40%; plant injury at 250 g/ha [10]: 50%; pest or weed control at 15.625 g/ha [11]: 10%; pest or weed control at 62.5 g/ha [11]: 70%; pest or weed control at 250 g/ha [11]: 80%; pest or weed control at 15.625 g/ha [12]: 10%; pest or weed control at 62.5 g/ha [12]: 0%; pest or weed control at 250 g/ha [12]: 0%
COc1c(F)cc(C2CN(C)C(=O)C2C(=O)Nc2cccc(F)c2F)cc1F (stereo not drawn) [Compound 1702]	70%	80%	80%	10%	60%	70%	10%	10%	40%	20%	20%	80%	60%	70%	80%	10%	20%	70%	70%	80%	pest or weed control at 250 g/ha [7]: 90%; pest or weed control at 15.625 g/ha [8]: 0%; pest or weed control at 62.5 g/ha [8]: 30%; pest or weed control at 250 g/ha [8]: 40%; pest or weed control at 15.625 g/ha [9]: 0%; pest or weed control at 62.5 g/ha [9]: 0%; pest or weed control at 250 g/ha [9]: 50%; plant injury at 15.625 g/ha [10]: 20%; plant injury at 62.5 g/ha [10]: 70%; plant injury at 250 g/ha [10]: 90%; pest or weed control at 15.625 g/ha [11]: 50%; pest or weed control at 62.5 g/ha [11]: 70%; pest or weed control at 250 g/ha [11]: 90%; pest or weed control at 15.625 g/ha [12]: 0%; pest or weed control at 62.5 g/ha [12]: 10%; pest or weed control at 250 g/ha [12]: 70%
CN1CC(c2cc(F)c(Cl)c(F)c2)C(C(=O)Nc2cccc(F)c2F)C1=O (stereo not drawn) [Compound 1703]	70%	70%	80%	60%	60%	60%	20%	60%	80%	0%	0%	80%	50%	70%	80%	10%	40%	70%	80%	80%	pest or weed control at 250 g/ha [7]: 90%; pest or weed control at 15.625 g/ha [8]: 0%; pest or weed control at 62.5 g/ha [8]: 0%; pest or weed control at 250 g/ha [8]: 40%; pest or weed control at 15.625 g/ha [9]: 0%; pest or weed control at 62.5 g/ha [9]: 0%; pest or weed control at 250 g/ha [9]: 10%; plant injury at 15.625 g/ha [10]: 0%; plant injury at 62.5 g/ha [10]: 60%; plant injury at 250 g/ha [10]: 80%; pest or weed control at 15.625 g/ha [11]: 50%; pest or weed control at 62.5 g/ha [11]: 80%; pest or weed control at 250 g/ha [11]: 80%; pest or weed control at 15.625 g/ha [12]: 0%; pest or weed control at 62.5 g/ha [12]: 0%; pest or weed control at 250 g/ha [12]: 30%
